From article PMC6950057, “Toxicity, Pharmacokinetics, and Gut Microbiome of Oral Administration of Sesterterpene MHO7 Derived from a Marine Fungus” (Marine Drugs, 2019)
Read-outs that look alike come from different tables or passages of the source.

Assay: Tissue distribution after single oral dose
Type: in vivo, mice
Conditions: for concentration at 1 h / concentration at 4 h / concentration at 8 h / concentration at 12 h / concentration at 20 h / concentration at 30 h / Kp: KM, mouse; for Kp: female
Procedure: The animals and treatment methods were the same as in the pharmacokinetic studies. Afterwards, the biological samples (n = 6 per group) were collected at 1, 4, 8, 12, 20, and 30 h, and the tissues including heart, liver, spleen, lung, kidney, stomach, intestine, brain, muscle (hind limb), fat (white adipose tissue ), reproductive organs (uterus, fallopian tube and ovary) stomach and its contents, and intestine and its contents, and the blood samples were simultaneously collected. All the tissues were washed with cold physiological saline (4 °C), excess fluid blotted, accurately weighed, and subjected to the processing as described in the sample preparation. QC samples and standard curve series solutions were prepared in the same way of blank gastrointestinal contents and livers, respectively. The concentrations of HQC, MQC, and LQC in mice tissues were 10, 1, and 0.1 μM·L^−1, respectively, and the concentrations of standard curve series solutions were 50, 25, 10, 5, 2.5, 1, 0.5, 0.25, 0.1, and 0.005 μM·L^−1 for high and low concentrations of standard curves.

[1] = 1 h, oral 500 mg·kg^−1, female mice
[2] = 4 h, oral 500 mg·kg^−1, female mice
[3] = 8 h, oral 500 mg·kg^−1, female mice
[4] = 12 h, oral 500 mg·kg^−1, female mice

For `CC(C)=C/C=C/[C@H](C)[C@H]1CC[C@]2(C)C[C@@H]3C(C)=CC(=O)[C@H]3/C(C=O)=C\C[C@@H]12` [MHO7, 6-epi-ophiobolin G], the “Concentration in Brain” value [1] was 0.95 ± 0.80 µg/g, the “Concentration in Liver” value [1] was 3.01 ± 1.53 µg/g and the “Concentration in Reproductive organs” value [1] was 0.88 ± 0.68 µg/g. The “Concentration in Fat” value [2] was 5.20 ± 3.47 µg/g, the “Concentration in Liver” value [2] was 1.64 ± 1.09 µg/g and the “Concentration in Reproductive organs” value [2] was 2.29 ± 1.80 µg/g. For the same compound, the “Concentration in Fat” value [3] was 11.15 ± 8.87 µg/g, the “Concentration in Kidney” value [3] was 1.66 ± 0.74 µg/g and the “Concentration in Reproductive organs” value [3] was 23.90 ± 11.33 µg/g. The “Concentration in Kidney” value [4] was 8.16 ± 6.23 µg/g, the “Concentration in Lung” value [4] was 2.34 ± 1.91 µg/g and the “Concentration in Reproductive organs” value [4] was 13.69 ± 10.29 µg/g. For the same compound, the “Concentration in Reproductive organs” value (20 h, oral 500 mg·kg^−1, female mice) was 1.46 ± 1.23 µg/g, the “Concentration in Reproductive organs” value (30 h, oral 500 mg·kg^−1, female mice) was 0.36 ± 0.46 µg/g and the concentration at 1 h (brain, 1 h, oral 500 mg·kg^−1, female mice, read-out: Concentration in Brain) was 950 ± 800 ng/g. It also gave a concentration at 4 h (brain, 4 h, oral 500 mg·kg^−1, female mice, read-out: Concentration in Brain) of 480 ± 330 ng/g, a concentration at 8 h (brain, 8 h, oral 500 mg·kg^−1, female mice, read-out: Concentration in Brain) of 500 ± 150 ng/g and a concentration at 12 h (brain, 12 h, oral 500 mg·kg^−1, female mice, read-out: Concentration in Brain) of 180 ± 110 ng/g. It also gave a concentration at 20 h (brain, 20 h, oral 500 mg·kg^−1, female mice, read-out: Concentration in Brain) of 100 ± 50 ng/g, a concentration at 30 h (brain, 30 h, oral 500 mg·kg^−1, female mice, read-out: Concentration in Brain) of 10 ± 4 ng/g and a concentration at 1 h (fat (white adipose tissue), 1 h, oral 500 mg·kg^−1, female mice, read-out: Concentration in Fat) of 740 ± 410 ng/g. It also gave a concentration at 4 h (fat (white adipose tissue), 4 h, oral 500 mg·kg^−1, female mice, read-out: Concentration in Fat) of 5200 ± 3470 ng/g, a concentration at 8 h (fat (white adipose tissue), 8 h, oral 500 mg·kg^−1, female mice, read-out: Concentration in Fat) of 11200 ± 8870 ng/g and a concentration at 12 h (fat (white adipose tissue), 12 h, oral 500 mg·kg^−1, female mice, read-out: Concentration in Fat) of 740 ± 700 ng/g. For the same compound, the concentration at 20 h (fat (white adipose tissue), 20 h, oral 500 mg·kg^−1, female mice, read-out: Concentration in Fat) was 340 ± 250 ng/g, the concentration at 30 h (fat (white adipose tissue), 30 h, oral 500 mg·kg^−1, female mice, read-out: Concentration in Fat) was 180 ± 160 ng/g and the concentration at 1 h (heart, 1 h, oral 500 mg·kg^−1, female mice, read-out: Concentration in Heart) was 60 ± 37 ng/g. For the same compound, the concentration at 4 h (heart, 4 h, oral 500 mg·kg^−1, female mice, read-out: Concentration in Heart) was 850 ± 510 ng/g, the concentration at 8 h (heart, 8 h, oral 500 mg·kg^−1, female mice, read-out: Concentration in Heart) was 670 ± 480 ng/g and the concentration at 12 h (heart, 12 h, oral 500 mg·kg^−1, female mice, read-out: Concentration in Heart) was 640 ± 300 ng/g. The concentration at 20 h (heart, 20 h, oral 500 mg·kg^−1, female mice, read-out: Concentration in Heart) was 40 ± 20 ng/g, the concentration at 30 h (heart, 30 h, oral 500 mg·kg^−1, female mice, read-out: Concentration in Heart) was 80 ± 10 ng/g and the concentration at 1 h (kidney, 1 h, oral 500 mg·kg^−1, female mice, read-out: Concentration in Kidney) was 110 ± 60 ng/g. The concentration at 4 h (kidney, 4 h, oral 500 mg·kg^−1, female mice, read-out: Concentration in Kidney) was 1630 ± 920 ng/g, the concentration at 8 h (kidney, 8 h, oral 500 mg·kg^−1, female mice, read-out: Concentration in Kidney) was 1660 ± 740 ng/g and the concentration at 12 h (kidney, 12 h, oral 500 mg·kg^−1, female mice, read-out: Concentration in Kidney) was 8160 ± 6230 ng/g. It also gave a concentration at 20 h (kidney, 20 h, oral 500 mg·kg^−1, female mice, read-out: Concentration in Kidney) of 390 ± 90 ng/g, a concentration at 30 h (kidney, 30 h, oral 500 mg·kg^−1, female mice, read-out: Concentration in Kidney) of 70 ± 10 ng/g and a concentration at 1 h (liver, 1 h, oral 500 mg·kg^−1, female mice, read-out: Concentration in Liver) of 3010 ± 1530 ng/g. The concentration at 4 h (liver, 4 h, oral 500 mg·kg^−1, female mice, read-out: Concentration in Liver) was 1640 ± 1090 ng/g, the concentration at 8 h (liver, 8 h, oral 500 mg·kg^−1, female mice, read-out: Concentration in Liver) was 180 ± 220 ng/g and the concentration at 12 h (liver, 12 h, oral 500 mg·kg^−1, female mice, read-out: Concentration in Liver) was 490 ± 370 ng/g. For the same compound, the concentration at 20 h (liver, 20 h, oral 500 mg·kg^−1, female mice, read-out: Concentration in Liver) was 60 ± 50 ng/g, the concentration at 30 h (liver, 30 h, oral 500 mg·kg^−1, female mice, read-out: Concentration in Liver) was 10 ± 10 ng/g and the concentration at 1 h (lung, 1 h, oral 500 mg·kg^−1, female mice, read-out: Concentration in Lung) was 430 ± 180 ng/g. It also gave a concentration at 4 h (lung, 4 h, oral 500 mg·kg^−1, female mice, read-out: Concentration in Lung) of 1060 ± 450 ng/g, a concentration at 8 h (lung, 8 h, oral 500 mg·kg^−1, female mice, read-out: Concentration in Lung) of 820 ± 710 ng/g and a concentration at 12 h (lung, 12 h, oral 500 mg·kg^−1, female mice, read-out: Concentration in Lung) of 2340 ± 1910 ng/g. The concentration at 20 h (lung, 20 h, oral 500 mg·kg^−1, female mice, read-out: Concentration in Lung) was 160 ± 40 ng/g, the concentration at 30 h (lung, 30 h, oral 500 mg·kg^−1, female mice, read-out: Concentration in Lung) was 80 ± 20 ng/g and the concentration at 1 h (muscle (hind limb), 1 h, oral 500 mg·kg^−1, female mice, read-out: Concentration in Muscle) was 310 ± 220 ng/g. It also gave a concentration at 4 h (muscle (hind limb), 4 h, oral 500 mg·kg^−1, female mice, read-out: Concentration in Muscle) of 970 ± 480 ng/g, a concentration at 8 h (muscle (hind limb), 8 h, oral 500 mg·kg^−1, female mice, read-out: Concentration in Muscle) of 640 ± 370 ng/g and a concentration at 12 h (muscle (hind limb), 12 h, oral 500 mg·kg^−1, female mice, read-out: Concentration in Muscle) of 1420 ± 800 ng/g. It also gave a concentration at 20 h (muscle (hind limb), 20 h, oral 500 mg·kg^−1, female mice, read-out: Concentration in Muscle) of 170 ± 100 ng/g, a concentration at 30 h (muscle (hind limb), 30 h, oral 500 mg·kg^−1, female mice, read-out: Concentration in Muscle) of 20 ± 3 ng/g and a concentration at 1 h (reproductive organs (uterus, fallopian tube and ovary), 1 h, oral 500 mg·kg^−1, female mice, read-out: Concentration in Reproductive organs) of 880 ± 680 ng/g. It also gave a concentration at 4 h (reproductive organs (uterus, fallopian tube and ovary), 4 h, oral 500 mg·kg^−1, female mice, read-out: Concentration in Reproductive organs) of 2290 ± 1800 ng/g, a concentration at 8 h (reproductive organs (uterus, fallopian tube and ovary), 8 h, oral 500 mg·kg^−1, female mice, read-out: Concentration in Reproductive organs) of 23900 ± 11300 ng/g and a concentration at 12 h (reproductive organs (uterus, fallopian tube and ovary), 12 h, oral 500 mg·kg^−1, female mice, read-out: Concentration in Reproductive organs) of 13700 ± 10300 ng/g. For the same compound, the concentration at 20 h (reproductive organs (uterus, fallopian tube and ovary), 20 h, oral 500 mg·kg^−1, female mice, read-out: Concentration in Reproductive organs) was 1460 ± 1230 ng/g, the concentration at 30 h (reproductive organs (uterus, fallopian tube and ovary), 30 h, oral 500 mg·kg^−1, female mice, read-out: Concentration in Reproductive organs) was 360 ± 460 ng/g and the concentration at 1 h (spleen, 1 h, oral 500 mg·kg^−1, female mice, read-out: Concentration in Spleen) was 40 ± 30 ng/g. For the same compound, the concentration at 4 h (spleen, 4 h, oral 500 mg·kg^−1, female mice, read-out: Concentration in Spleen) was 430 ± 200 ng/g, the concentration at 8 h (spleen, 8 h, oral 500 mg·kg^−1, female mice, read-out: Concentration in Spleen) was 480 ± 500 ng/g and the concentration at 12 h (spleen, 12 h, oral 500 mg·kg^−1, female mice, read-out: Concentration in Spleen) was 200 ± 140 ng/g. The concentration at 20 h (spleen, 20 h, oral 500 mg·kg^−1, female mice, read-out: Concentration in Spleen) was 310 ± 20 ng/g, the concentration at 30 h (spleen, 30 h, oral 500 mg·kg^−1, female mice, read-out: Concentration in Spleen) was 10 ± 4 ng/g and the Kp (brain, over 1-30 h, oral 500 mg·kg^−1, read-out: tissue/plasma concentration ratio range, brain) was 0.36 to 6.11. For the same compound, the Kp (fat (white adipose tissue), over 1-30 h, oral 500 mg·kg^−1, read-out: tissue/plasma concentration ratio range, fat) was 2.33 to 14, the Kp (heart / plasma, over 1-30 h, oral 500 mg·kg^−1, read-out: tissue/plasma concentration ratio range, heart) was 0.31 to 4.2 and the Kp (intestines, oral 500 mg·kg^−1, read-out: tissue/plasma concentration ratio, intestines) was greater than 100. For the same compound, the Kp (kidney, over 1-30 h, oral 500 mg·kg^−1, read-out: tissue/plasma concentration ratio range, kidney) was 0.68 to 17.2, the Kp (liver, over 1-30 h, oral 500 mg·kg^−1, read-out: tissue/plasma concentration ratio range, liver) was 0.18 to 17.4 and the Kp (lung, over 1-30 h, oral 500 mg·kg^−1, read-out: tissue/plasma concentration ratio range, lung) was 0.72 to 6.84. It also gave a Kp (muscle (hind limb), over 1-30 h, oral 500 mg·kg^−1, read-out: tissue/plasma concentration ratio range, muscle) of 0.99 to 5.54, a Kp (reproductive organs (uterus, fallopian tube and ovary), over 1-30 h, oral 500 mg·kg^−1, read-out: tissue/plasma concentration ratio range, reproductive organs) of 6.05 to 30.4 and a Kp (spleen, over 1-30 h, oral 500 mg·kg^−1, read-out: tissue/plasma concentration ratio range, spleen) of 0.28 to 8.55. The Kp (stomach, oral 500 mg·kg^−1, read-out: tissue/plasma concentration ratio, stomach) was greater than 1000, the “amount in the intestine and its contents, of the intake” value (oral 500 mg·kg^−1, female mice) was “less than 5%” and the “amount in the stomach and its contents, of the intake” value (oral 500 mg·kg^−1, female mice) was 16.79%. For the same compound, the “concentration range in fat” value (over 1-30 h, oral 500 mg·kg^−1) was 0.18–11.15, the “concentration range in the brain” value (over 1-30 h, oral 500 mg·kg^−1) was 0.01–0.95 and the “concentration range in the heart” value (over 1-30 h, oral 500 mg·kg^−1) was 0.04–0.85. The “concentration range in the kidney” value (over 1-30 h, oral 500 mg·kg^−1) was 0.07–8.16, the “concentration range in the liver” value (over 1-30 h, oral 500 mg·kg^−1) was 0.01–3.01 and the “concentration range in the lung” value (over 1-30 h, oral 500 mg·kg^−1) was 0.08–2.34. The “concentration range in the muscle” value (over 1-30 h, oral 500 mg·kg^−1) was 0.02–1.42, the “concentration range in the reproductive organs” value (over 1-30 h, oral 500 mg·kg^−1) was 0.36–23.90 and the “concentration range in the spleen” value (over 1-30 h, oral 500 mg·kg^−1) was 0.01–0.48.
